Drawing on ChEMBL document CHEMBL3585279, “Novel 2,5-disubtituted-1,3,4-oxadiazoles with benzimidazole backbone: a new class of β-glucuronidase inhibitors and in silico studies” (Bioorg Med Chem, 2015), this text covers IC50 for three molecules.

The target of the assay is T1, Beta-glucuronidase (Homo sapiens, UniProt P08236).
T1 sequence (P08236 whole entry): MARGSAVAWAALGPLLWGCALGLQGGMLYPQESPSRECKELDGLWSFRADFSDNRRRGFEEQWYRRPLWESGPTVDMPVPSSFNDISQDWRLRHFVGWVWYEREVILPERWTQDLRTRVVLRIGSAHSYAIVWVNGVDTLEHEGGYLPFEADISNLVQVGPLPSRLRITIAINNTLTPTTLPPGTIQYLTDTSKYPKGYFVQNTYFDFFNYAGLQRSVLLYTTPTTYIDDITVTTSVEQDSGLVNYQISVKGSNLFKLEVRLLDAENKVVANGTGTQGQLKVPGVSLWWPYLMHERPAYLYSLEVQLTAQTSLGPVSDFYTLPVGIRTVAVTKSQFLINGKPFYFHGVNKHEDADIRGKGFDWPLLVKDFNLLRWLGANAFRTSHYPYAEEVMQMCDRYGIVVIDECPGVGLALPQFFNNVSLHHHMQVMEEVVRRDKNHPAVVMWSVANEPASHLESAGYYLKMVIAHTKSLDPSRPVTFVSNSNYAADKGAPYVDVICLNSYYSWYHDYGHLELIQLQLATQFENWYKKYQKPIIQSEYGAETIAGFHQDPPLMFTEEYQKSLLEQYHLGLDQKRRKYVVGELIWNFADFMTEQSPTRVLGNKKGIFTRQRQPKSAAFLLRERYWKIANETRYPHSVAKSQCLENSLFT
Description: Inhibition of beta-D-glucuronidase (unknown origin) assessed as reduction in p-nitrophenol formation using p-nitrophenyl-beta-D-glucuronide substarte incubated at 37 degC for 30 mins by spectrophotometric method
Regarding `COc1ccc(-c2nnc(-c3ccc(-c4nc5cc(C)c(C)cc5[nH]4)cc3)o2)cc1`, the IC50 entry is “Not Active”. As for `Cc1cccc(-c2nnc(-c3ccc(-c4nc5cc(C)c(C)cc5[nH]4)cc3)o2)c1`, the IC50 result is given as “Not Active”. Turning to `Cc1cc2nc(-c3ccc(-c4nnc(-c5ccccc5C)o4)cc3)[nH]c2cc1C`, the IC50 entry is “Not Active”.
